{"source": "patent US10428086B2", "about": "“Solvated crystal form of rifaximin, production, compositions and uses thereof” (ALFASIGMA S.p.A., priority 2014, dated 2019)", "key": {"[1]": {"experiment": "Determination of intrinsic dissolution (European Pharmacopeia Ed. 7.0, 2.9.3)", "type": "physicochemical", "settings": "for Intrinsic dissolution: powder of Example 5, Eur. Pharm. 7.0, 2.9.3", "method": "The determination of the intrinsic dissolution of the powder, which was obtained according to what is described in Example 5, was carried out according to European Pharmacopeia Ed. 7.0, 2010, 2.9.3, page 256, (the disclosure of which is incorporated herein by reference in its entirety), comparing the new crystal of rifaximin τ and amorphous rifaximin and rifaximin polymorph β."}, "[2]": {"experiment": "Dissolution rate at neutral pH (phosphate buffer pH 6.8)", "type": "physicochemical", "settings": "for Concentration: 500 mg in 750 ml phosphate buffer pH 6.8, 30°C, 250 rpm", "method": "An amount of 500 mg of rifaximin τ, 500 mg of rifaximin polymorph α, and 500 mg of amorphous rifaximin were suspended, respectively, in 750 ml of phosphate buffer at pH 6.8 at a temperature of 30±0.5° C. The solutions were stirred for 120 minutes at a stirring rate of 250 rpm. Samples with equal volume were taken at fixed time intervals, filtered and analyzed by spectrophotometer at a wavelength of 430 nm. The rifaximin concentration in the samples was calculated compared to a solution having a known concentration."}, "[3]": {"experiment": "PK / bioavailability study on dogs", "type": "in vivo, Beagle male dogs", "settings": "single oral capsule 100 mg/kg, plasma; for tmax: median values", "method": "A bioavailability study of rifaximin τ in comparison with rifaximin amorphous and rifaximin polymorph alpha has been carried out on 4 Beagle male dogs, by feeding them a dose of 100 mg/kg of one of the polymorphs or amorphous form. Each animal received a single oral capsule of rifaximin τ, amorphous rifaximin, and rifaximin α with a washout period of seven days between the administration of each form to the same animal. Doses were administered with a […] gelatine capsule followed by 10 ml of drinking water.\nBlood was taken at 6 time points up to 24 hours post dose and it was collected into tubes containing lithium heparin anticoagulant.\nThe plasma has been assayed for rifaximin on the validated LC-MS/MS (Liquid Chromatography-Mass Spectrometry/Mass Spectrometry) method and the maximum plasma concentration observed (Cmax), the time to reach the (Cmax), (tmax), and the area under the concentration-time curve (AUC) have been calculated."}, "[4]": {"settings": "per oral route; cited from earlier work"}, "[5]": {"experiment": "Stability in different humidity environments (XRPD)", "type": "physicochemical", "settings": "for Stability of crystal form (XRPD pattern after exposure): 10 days; for Stability on exposure to humidity: humidity levels about 10% to about 90%, about 1 hour to about 10 days", "description": "a) The rifaximin τ obtained according to Example 1 was exposed at room temperature to a humidity level of 11%, obtained by means of a saturated solution of LiCl, for a period of time of 10 days.\nb) Another crystal of rifaximin τ was exposed to a humidity level of 84%, obtained with a supersaturated aqueous solution of KCl for 10 days."}}, "data": [{"smiles": "CO[C@H]1/C=C/O[C@@]2(C)Oc3c(C)c(O)c4c(O)c(c5c(nc6cc(C)ccn65)c4c3C2=O)NC(=O)/C(C)=C\\C=C\\[C@H](C)[C@H](O)[C@@H](C)[C@@H](O)[C@@H](C)[C@H](OC(C)=O)[C@@H]1C", "note": "[Amorphous rifaximin, rifaximin]", "values": [{"measurement": "Effect of added DEGME on measured dissolved rifaximin", "setting": "[1]; addition of 0.1 ml and 1.25 ml DEGME to the solution contacting the tablet", "value": "does not change the measured value of the dissolved rifaximin"}, {"measurement": "Intrinsic dissolution", "setting": "[1]", "value": 0.131, "unit": "mg/min/cm^2"}, {"measurement": "Concentration", "setting": "[2]; 5 min", "value": 14400, "unit": "ng/mL"}, {"measurement": "Concentration", "setting": "[2]; 15 min", "value": 44000, "unit": "ng/mL"}, {"measurement": "Concentration", "setting": "[2]; 30 min", "value": 28700, "unit": "ng/mL"}, {"measurement": "Concentration", "setting": "[2]; 60 min", "value": 11000, "unit": "ng/mL"}, {"measurement": "Concentration", "setting": "[2]; 120 min", "value": 9100, "unit": "ng/mL"}, {"measurement": "AUC 0-8h", "setting": "[3]", "value": "1318.02 ± 1975.04", "unit": "ng·h/mL"}, {"measurement": "AUC 0-tlast", "setting": "[3]", "value": "2337.16 ± 3223.76", "unit": "ng·h/mL"}, {"measurement": "Cmax", "setting": "[3]", "value": "279.79 ± 378.41", "unit": "ng/mL"}, {"measurement": "tmax", "setting": "[3]", "value": 3, "unit": "h"}]}, {"smiles": "CCOCCOCCO", "note": "[DEGME, 2-(2-ethoxyethoxy)ethanol]", "values": [{"measurement": "NOAEL (No Observed Adverse Effect Level)", "setting": "[4]", "value": "higher than 160 mg/kg of body mass"}]}, {"smiles": "CO[C@H]1/C=C/O[C@@]2(C)Oc3c(C)c(O)c4c(O)c(c5c(nc6cc(C)ccn65)c4c3C2=O)NC(=O)/C(C)=C\\C=C\\[C@H](C)[C@H](O)[C@@H](C)[C@@H](O)[C@@H](C)[C@H](OC(C)=O)[C@@H]1C", "note": "[Rifaximin polymorph β, rifaximin]", "values": [{"measurement": "Intrinsic dissolution", "setting": "[1]", "value": 0.016, "unit": "mg/min/cm^2"}]}, {"smiles": "CO[C@H]1/C=C/O[C@@]2(C)Oc3c(C)c(O)c4c(O)c(c5c(nc6cc(C)ccn65)c4c3C2=O)NC(=O)/C(C)=C\\C=C\\[C@H](C)[C@H](O)[C@@H](C)[C@@H](O)[C@@H](C)[C@H](OC(C)=O)[C@@H]1C", "note": "[Rifaximin α, rifaximin]", "values": [{"measurement": "Concentration", "setting": "[2]; 5 min", "value": 1050, "unit": "ng/mL"}, {"measurement": "Concentration", "setting": "[2]; 15 min", "value": 3260, "unit": "ng/mL"}, {"measurement": "Concentration", "setting": "[2]; 30 min", "value": 4230, "unit": "ng/mL"}, {"measurement": "Concentration", "setting": "[2]; 60 min", "value": 4120, "unit": "ng/mL"}, {"measurement": "Concentration", "setting": "[2]; 120 min", "value": 3890, "unit": "ng/mL"}, {"measurement": "AUC 0-8h", "setting": "[3]", "value": "7.20 ± 4.00", "unit": "ng·h/mL"}, {"measurement": "AUC 0-tlast", "setting": "[3]", "value": "16.86 ± 13.99", "unit": "ng·h/mL"}, {"measurement": "Cmax", "setting": "[3]", "value": "2.84 ± 1.26", "unit": "ng/mL"}, {"measurement": "tmax", "setting": "[3]", "value": 1, "unit": "h"}]}, {"smiles": "CO[C@H]1/C=C/O[C@@]2(C)Oc3c(C)c(O)c4c(O)c(c5c(nc6cc(C)ccn65)c4c3C2=O)NC(=O)/C(C)=C\\C=C\\[C@H](C)[C@H](O)[C@@H](C)[C@@H](O)[C@@H](C)[C@H](OC(C)=O)[C@@H]1C", "note": "[Rifaximin τ, rifaximin]", "values": [{"measurement": "Stability of crystal form (XRPD pattern after exposure)", "setting": "[5]; humidity level 11% (saturated LiCl), room temperature", "value": "correspond to the X-ray diffraction pattern of FIG. 1"}, {"measurement": "Stability of crystal form (XRPD pattern after exposure)", "setting": "[5]; humidity level 84% (supersaturated KCl)", "value": "correspond to the X-ray diffraction pattern of FIG. 1"}, {"measurement": "Stability on exposure to humidity", "setting": "[5]", "value": "does not alter its chemical structure"}, {"measurement": "Stability on exposure to humidity", "setting": "[5]; listed as rifaximin τ", "value": "does not transform its crystallographic parameters and X-ray diffractogram"}, {"measurement": "Concentration", "setting": "[2]; 5 min", "value": 21680, "unit": "ng/mL"}, {"measurement": "Concentration", "setting": "[2]; 15 min", "value": 57680, "unit": "ng/mL"}, {"measurement": "Concentration", "setting": "[2]; 30 min", "value": "higher than 90 μg/ml"}, {"measurement": "Concentration", "setting": "[2]; 60 min", "value": 43140, "unit": "ng/mL"}, {"measurement": "Concentration", "setting": "[2]; 120 min", "value": 14930, "unit": "ng/mL"}, {"measurement": "Concentration relative to rifaximin polymorph α", "setting": "[2]; aqueous solution", "value": "about 25 times"}, {"measurement": "Concentration relative to amorphous rifaximin", "setting": "[2]; pH 6.8, after about 30 minutes", "value": "about five times higher"}, {"measurement": "Concentration relative to rifaximin polymorph α or β", "setting": "[2]; pH 6.8, after about 30 minutes", "value": "about twenty times higher"}, {"measurement": "AUC 0-8h", "setting": "[3]; listed as rifaximin τ", "value": "0 to 35", "unit": "ng·h/mL"}, {"measurement": "AUC 0-tlast", "setting": "[3]; listed as rifaximin τ", "value": "20 to 325", "unit": "ng·h/mL"}, {"measurement": "Cmax", "setting": "[3]; listed as rifaximin τ", "value": "0 to 35", "unit": "ng/mL"}, {"measurement": "AUC 0-8h", "setting": "[3]; listed as τ", "value": "19.93 ± 10.25", "unit": "ng·h/mL"}, {"measurement": "AUC 0-tlast", "setting": "[3]; listed as τ", "value": "150.54 ± 172.55", "unit": "ng·h/mL"}, {"measurement": "Cmax", "setting": "[3]; listed as τ", "value": "15.70 ± 18.63", "unit": "ng/mL"}, {"measurement": "tmax", "setting": "[3]; listed as rifaximin τ", "value": "3 to 7", "unit": "h"}, {"measurement": "tmax", "setting": "[3]; listed as τ", "value": 5, "unit": "h"}]}]}
